Reference: patent US20180000085A1, “USE OF PICOLINAMIDE COMPOUNDS WITH FUNGICIDAL ACTIVITY” (DOW AGROSCIENCES LLC, priority 2014, published 2018)

Legend:
Format in all cases: in vivo
Pyricularia oryzae = settings: 100 ppm; 1 Day Protectant; rice
[1] = system: Colletotrichum lagenarium; assay: Cucumber anthracnose (COLLLA) disease control; settings: 100 ppm, 1 Day Protectant
Description: All fungicides were evaluated using the aforementioned method for their activity vs. all target diseases, unless stated otherwise. Wheat leaf blotch and brown rust activity were also evaluated using track spray applications, in which case the fungicides were formulated as EC formulations, containing 0.1% Trycol 5941 in the spray solutions. Wheat plants (variety Yuma) were grown from seed in a greenhouse in 50% mineral soil/50% soil-less Metro mix until the first leaf was fully emerged, with 7-10 seedlings per pot. These plants were inoculated with an aqueous spore suspension of Zymoseptoria tritici either prior to or after fungicide treatments. After inoculation the plants were kept in 100% relative humidity (one day in a dark dew chamber followed by two to three days in a lighted dew chamber at 20° C.) to permit spores to germinate and infect the leaf. The plants were then transferred to a greenhouse set at 20° C. for disease to develop. When disease symptoms were fully expressed on the 1st leaves of untreated plants, infection levels were assessed on a scale of 0 to 100 percent disease severity. Percent disease control was calculated using the ratio of disease severity on treated plants relative to untreated plants. Example K: Evaluation of Fungicidal Activity: Cucumber Anthracnose (Colletotrichum lagenarium; Bayer Code COLLLA) Cucumber seedlings (variety Bush Pickle) were propagated in soil-less Metro mix, with each pot having one plant, and used in the test when 12 to 14 days old. Test plants were inoculated with an aqueous spore suspension of Colletotrichum lagenarium 24 hr after fungicide treatments. After inoculation the plants were kept in a dew room at 22° C. with 100% relative humidity for 48 hr to permit spores to germinate and infect the leaf. The plants were then transferred to a growth room set at 22° C. for disease to develop. Fungicide formulation, application and disease assessment on the sprayed leaves followed the procedures as described in the Example A.

Leptosphaeria nodorum = assay: Wheat glume blotch (LEPTNO) disease control; settings: 100 ppm, 1 Day Protectant
Description: All fungicides were evaluated using the aforementioned method for their activity vs. all target diseases, unless stated otherwise. Wheat leaf blotch and brown rust activity were also evaluated using track spray applications, in which case the fungicides were formulated as EC formulations, containing 0.1% Trycol 5941 in the spray solutions. Wheat plants (variety Yuma) were grown from seed in a greenhouse in 50% mineral soil/50% soil-less Metro mix until the first leaf was fully emerged, with 7-10 seedlings per pot. These plants were inoculated with an aqueous spore suspension of Zymoseptoria tritici either prior to or after fungicide treatments. After inoculation the plants were kept in 100% relative humidity (one day in a dark dew chamber followed by two to three days in a lighted dew chamber at 20° C.) to permit spores to germinate and infect the leaf. The plants were then transferred to a greenhouse set at 20° C. for disease to develop. When disease symptoms were fully expressed on the 1st leaves of untreated plants, infection levels were assessed on a scale of 0 to 100 percent disease severity. Percent disease control was calculated using the ratio of disease severity on treated plants relative to untreated plants. Example C: Evaluation of Fungicidal Activity: Wheat Glume Blotch (Leptosphaeria nodorum; Bayer Code […]) Wheat plants (variety Yuma) were grown from seed in a greenhouse in 50% mineral soil/50% soil-less Metro mix until the first leaf was fully emerged, with 7-10 seedlings per pot. These plants were inoculated with an aqueous spore suspension of Leptosphaeria nodorum 24 hr after fungicide treatments. After inoculation the plants were kept in 100% relative humidity (one day in a dark dew chamber followed by two days in a lighted dew chamber at 20° C.) to permit spores to germinate and infect the leaf. The plants were then transferred to a greenhouse set at 20° C. for disease to develop. Fungicide formulation, application and disease assessment followed the procedures as described in the Example A.

Phakopsora pachyrhizi = assay: Asian soybean rust (PHAKPA) disease control; design: key: A: > 80; B: ≤ 80; C: Not Tested; D: No Activity Observed in the Reported Assay; settings: 25 ppm; for PHAKPA disease control, 1DP: 1 Day Protectant; for PHAKPA disease control, 3DC: 3 Day Curative
Zymoseptoria tritici = assay: Leaf blotch of wheat (SEPTTR) disease control on wheat seedlings
[2] = low volume application, 125.1 g/H, 1 Day Protectant
[3] = low volume application, 125.1 g/H, 3 Day Curative

CCC(CC)[C@@H](Oc1ccc(F)cc1)[C@H](C)OC(=O)[C@H](C)NC(=O)c1nccc(OC)c1OCOC(C)=O [Cmpd 587]
PYRIOR disease control, 1DP (Pyricularia oryzae): A (> 80) | COLLLA disease control, 1DP [1]: A (> 80) | LEPTNO disease control, 1DP (Leptosphaeria nodorum): A (> 80) | PHAKPA disease control, 1DP (Phakopsora pachyrhizi): A (> 80) | PHAKPA disease control, 3DC (Phakopsora pachyrhizi): B (≤ 80) | SEPTTR 1DP, LV activity at 125.1 g/H (% Control rating) (Zymoseptoria tritici; [2]): A (> 80) | SEPTTR 3DC, LV activity at 125.1 g/H (% Control rating) (Zymoseptoria tritici; [3]): A (> 80)

COc1ccnc(C(=O)N[C@@H](C)C(=O)O[C@@H](C)[C@@H](Oc2ccccc2)C(C)C)c1OCOC(C)=O [Cmpd 552]
PHAKPA disease control, 1DP (Phakopsora pachyrhizi): A (> 80) | PHAKPA disease control, 3DC (Phakopsora pachyrhizi): B (≤ 80) | SEPTTR 1DP, LV activity at 125.1 g/H (% Control rating) (Zymoseptoria tritici; [2]): A (> 80) | SEPTTR 3DC, LV activity at 125.1 g/H (% Control rating) (Zymoseptoria tritici; [3]): A (> 80)

CCC(C)C(Oc1ccccc1)C(C)OC(=O)C(C)NC(=O)c1nccc(OC)c1OC(C)=O (centres unmarked) [Cmpd 691]
COLLLA disease control, 1DP [1]: A (> 80) | LEPTNO disease control, 1DP (Leptosphaeria nodorum): A (> 80) | PHAKPA disease control, 1DP (Phakopsora pachyrhizi): A (> 80) | PHAKPA disease control, 3DC (Phakopsora pachyrhizi): B (≤ 80) | SEPTTR 1DP disease control rating, LV activity at 125.1 g/H (Zymoseptoria tritici; low volume application, 125.1 g/H, 1 day protectant): A (> 80) | SEPTTR 3DC disease control rating, LV activity at 125.1 g/H (Zymoseptoria tritici; low volume application, 125.1 g/H, 3 day curative): A (> 80)

COc1ccnc(C(=O)N[C@@H](C)C(=O)O[C@@H](C)[C@H](Oc2cccc(F)c2)c2ccccc2)c1OCOC(C)=O [Cmpd 574]
PYRIOR disease control, 1DP (Pyricularia oryzae): A (> 80) | COLLLA disease control, 1DP [1]: A (> 80) | LEPTNO disease control, 1DP (Leptosphaeria nodorum): A (> 80) | PHAKPA disease control, 1DP (Phakopsora pachyrhizi): A (> 80) | PHAKPA disease control, 3DC (Phakopsora pachyrhizi): B (≤ 80) | SEPTTR 1DP, LV activity at 125.1 g/H (% Control rating) (Zymoseptoria tritici; [2]): A (> 80) | SEPTTR 3DC, LV activity at 125.1 g/H (% Control rating) (Zymoseptoria tritici; [3]): A (> 80)

COc1ccnc(C(=O)N[C@H](C)C(=O)O[C@H](C)[C@H](Oc2ccccc2)C(C)C)c1OCOC(C)=O [Cmpd 560]
PHAKPA disease control, 1DP (Phakopsora pachyrhizi): B (≤ 80) | PHAKPA disease control, 3DC (Phakopsora pachyrhizi): D | SEPTTR 1DP, LV activity at 125.1 g/H (% Control rating) (Zymoseptoria tritici; [2]): B (≤ 80) | SEPTTR 3DC, LV activity at 125.1 g/H (% Control rating) (Zymoseptoria tritici; [3]): B (≤ 80)

COc1ccnc(C(=O)N[C@@H](C)C(=O)O[C@@H](C)[C@H](Oc2cccc(Cl)c2)C(C)C)c1OC(C)=O [Cmpd 566]
COLLLA disease control, 1DP [1]: A (> 80) | LEPTNO disease control, 1DP (Leptosphaeria nodorum): A (> 80) | PHAKPA disease control, 1DP (Phakopsora pachyrhizi): A (> 80) | PHAKPA disease control, 3DC (Phakopsora pachyrhizi): B (≤ 80) | SEPTTR 1DP, LV activity at 125.1 g/H (% Control rating) (Zymoseptoria tritici; [2]): B (≤ 80) | SEPTTR 3DC, LV activity at 125.1 g/H (% Control rating) (Zymoseptoria tritici; [3]): A (> 80)

COc1ccnc(C(=O)N[C@@H](C)C(=O)O[C@@H](C)[C@@H](CC(C)C)Oc2ccccc2)c1OCOC(C)=O [Cmpd 557]
PHAKPA disease control, 1DP (Phakopsora pachyrhizi): A (> 80) | PHAKPA disease control, 3DC (Phakopsora pachyrhizi): B (≤ 80) | SEPTTR 1DP, LV activity at 125.1 g/H (% Control rating) (Zymoseptoria tritici; [2]): A (> 80) | SEPTTR 3DC, LV activity at 125.1 g/H (% Control rating) (Zymoseptoria tritici; [3]): A (> 80)

CC[C@@H](CCOC)[C@@H](Oc1ccccc1)[C@H](C)OC(=O)[C@H](C)NC(=O)c1nccc(OC)c1OC(C)=O [Cmpd 482]
PYRIOR disease control, 1DP (Pyricularia oryzae): A (> 80) | COLLLA disease control, 1DP [1]: A (> 80) | LEPTNO disease control, 1DP (Leptosphaeria nodorum): A (> 80) | SEPTTR 1DP, LV activity at 125.1 g/H (% Control rating) (Zymoseptoria tritici; [2]): A (> 80) | SEPTTR 3DC, LV activity at 125.1 g/H (% Control rating) (Zymoseptoria tritici; [3]): A (> 80)

COc1ccnc(C(=O)N[C@@H](C)C(=O)O[C@H](C)[C@@H](Oc2ccccc2)c2ccccc2)c1OCOC(C)=O [Cmpd 547]
PHAKPA disease control, 1DP (Phakopsora pachyrhizi): B (≤ 80) | PHAKPA disease control, 3DC (Phakopsora pachyrhizi): D | SEPTTR 1DP, LV activity at 125.1 g/H (% Control rating) (Zymoseptoria tritici; [2]): A (> 80) | SEPTTR 3DC, LV activity at 125.1 g/H (% Control rating) (Zymoseptoria tritici; [3]): A (> 80)

COc1ccnc(C(=O)N[C@H](C)C(=O)O[C@@H](C)[C@H](Oc2ccccc2)C(C)C)c1OCOC(C)=O [Cmpd 558]
PHAKPA disease control, 1DP (Phakopsora pachyrhizi): B (≤ 80) | PHAKPA disease control, 3DC (Phakopsora pachyrhizi): D | SEPTTR 1DP, LV activity at 125.1 g/H (% Control rating) (Zymoseptoria tritici; [2]): B (≤ 80) | SEPTTR 3DC, LV activity at 125.1 g/H (% Control rating) (Zymoseptoria tritici; [3]): B (≤ 80)

COc1ccnc(C(=O)N[C@H](C)C(=O)O[C@H](C)[C@@H](Oc2ccccc2)c2ccccc2)c1OCOC(C)=O [Cmpd 549]
PHAKPA disease control, 1DP (Phakopsora pachyrhizi): D | PHAKPA disease control, 3DC (Phakopsora pachyrhizi): D | SEPTTR 1DP, LV activity at 125.1 g/H (% Control rating) (Zymoseptoria tritici; [2]): B (≤ 80) | SEPTTR 3DC, LV activity at 125.1 g/H (% Control rating) (Zymoseptoria tritici; [3]): B (≤ 80)

COc1ccnc(C(=O)N[C@H](C)C(=O)O[C@H](C)[C@@H](Oc2ccccc2)C(C)C)c1OCOC(C)=O [Cmpd 548]
PHAKPA disease control, 1DP (Phakopsora pachyrhizi): B (≤ 80) | PHAKPA disease control, 3DC (Phakopsora pachyrhizi): D | SEPTTR 1DP, LV activity at 125.1 g/H (% Control rating) (Zymoseptoria tritici; [2]): B (≤ 80) | SEPTTR 3DC, LV activity at 125.1 g/H (% Control rating) (Zymoseptoria tritici; [3]): B (≤ 80)

COc1ccnc(C(=O)N[C@H](C)C(=O)O[C@@H](C)[C@@H](Oc2ccccc2)C(C)C)c1OCOC(C)=O [Cmpd 559]
PHAKPA disease control, 1DP (Phakopsora pachyrhizi): B (≤ 80) | PHAKPA disease control, 3DC (Phakopsora pachyrhizi): B (≤ 80) | SEPTTR 1DP, LV activity at 125.1 g/H (% Control rating) (Zymoseptoria tritici; [2]): B (≤ 80) | SEPTTR 3DC, LV activity at 125.1 g/H (% Control rating) (Zymoseptoria tritici; [3]): A (> 80)

CCCOC(CC)C(Oc1ccccc1)C(C)OC(=O)C(C)NC(=O)c1nccc(OC)c1OCOC(C)=O (centres unmarked) [Cmpd 446]
COLLLA disease control, 1DP [1]: B (≤ 80) | LEPTNO disease control, 1DP (Leptosphaeria nodorum): A (> 80) | PHAKPA disease control, 1DP (Phakopsora pachyrhizi): A (> 80) | PHAKPA disease control, 3DC (Phakopsora pachyrhizi): B (≤ 80) | SEPTTR 1DP disease control rating, HV activity (Zymoseptoria tritici; HV application at 100 ppm, 1 Day Protectant, wheat leaf blotch): A (> 80) | SEPTTR 3DC disease control rating, HV activity (Zymoseptoria tritici; HV application at 100 ppm, 3 Day Curative, wheat leaf blotch): A (> 80) | SEPTTR 1DP disease control rating, LV activity (Zymoseptoria tritici; Low volume application at 125.1 g/H, 1 Day Protectant, wheat leaf blotch): A (> 80) | SEPTTR 3DC disease control rating, LV activity (Zymoseptoria tritici; Low volume application at 125.1 g/H, 3 Day Curative, wheat leaf blotch): A (> 80)

COc1ccnc(C(=O)N[C@@H](C)C(=O)O[C@@H](C)[C@H](Oc2cc(F)cc(Cl)c2)C(C)C)c1OCOC(C)=O [Cmpd 617]
COLLLA disease control, 1DP [1]: A (> 80) | LEPTNO disease control, 1DP (Leptosphaeria nodorum): A (> 80) | PHAKPA disease control, 1DP (Phakopsora pachyrhizi): A (> 80) | PHAKPA disease control, 3DC (Phakopsora pachyrhizi): B (≤ 80) | SEPTTR 1DP, LV activity at 125.1 g/H (% Control rating) (Zymoseptoria tritici; [2]): A (> 80) | SEPTTR 3DC, LV activity at 125.1 g/H (% Control rating) (Zymoseptoria tritici; [3]): A (> 80)
